Results published in patent US10233186B2, “Inhibitors of activin receptor-like kinase” (BLUEPRINT MEDICINES CORPORATION, priority 2016, dated 2019).

Legend:
[1] = molecular target: T1, human ALK2 R206H (Homo sapiens, UniProt Q04771, R206H); test: Cell-based ALK2-R206H cell activity assay (Smad1-Ser463/Ser465 phosphorylation by AlphaLISA in HEK293-ALK2-R206H cells); conditions: read-out: Cell Line (Cell Assay IC50)
T1 construct: expressed in transfected cells; host or cells: HEK293 (ATCC CRL1573), lentivirus transduction, blasticidin selection
T1 sequence (Q04771 21-509 R206H): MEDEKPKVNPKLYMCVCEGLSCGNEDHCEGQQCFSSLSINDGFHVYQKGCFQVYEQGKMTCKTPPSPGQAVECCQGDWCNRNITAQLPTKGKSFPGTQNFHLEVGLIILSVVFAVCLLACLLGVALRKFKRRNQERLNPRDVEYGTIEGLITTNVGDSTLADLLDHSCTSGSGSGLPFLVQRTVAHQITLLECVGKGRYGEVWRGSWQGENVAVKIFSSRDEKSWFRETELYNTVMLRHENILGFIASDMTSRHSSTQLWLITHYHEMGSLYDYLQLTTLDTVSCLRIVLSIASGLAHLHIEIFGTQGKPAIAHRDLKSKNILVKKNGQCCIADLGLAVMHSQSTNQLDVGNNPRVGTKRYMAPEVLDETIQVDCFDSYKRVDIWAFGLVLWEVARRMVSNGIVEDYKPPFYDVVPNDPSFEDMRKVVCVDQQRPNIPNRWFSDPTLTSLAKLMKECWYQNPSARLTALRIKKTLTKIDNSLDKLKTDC
Protocol: A HEK293 (ATCC, Cat^# CRL1573) based stable cell line expressing human ALK2 R206H cDNA (synthesized by GeneScript, Piscataway, N.J.) and a FLAG tag at the C-terminus was generated by lentivirus transduction and subsequent blasticidin (Life Technologies, Cat^#-A1113902) selection at 10 μg/ml for >2 wks. This cell line was named HEK293-ALK2-R206H.
Test compounds were first diluted to 4 mM or 0.4 mM and then serially diluted 3-fold into 10 different concentrations using DMSO. […] Two μl of the diluted compounds were then dispensed into the HEK293-ALK2-R206H cell-containing wells of the microplates in duplicates. In this way, each compound was tested in 10 doses (3-fold serial dilution with the top concentration being 10 μM or 1 μM). Liquid handling was achieved using a Bravo Automated Liquid Handling Platform (Agilent Technologies). DMSO without compound was used as a negative control. The positive control was 1 μM LDN193189, a known bone morphogenetic protein (BMP inhibitor).
The 10-point dose response curve was used to calculate the IC50 values.
(§1) Blank values in the table indicate that the particular compound was not tested in this assay.

[2] = molecular target: T2, ALK2 R206H (GST-tagged mutant ALK2) (Homo sapiens, UniProt Q04771, R206H); test: ALK binding assay (LANTHASCREEN TR-FRET competitive binding, displacement of Kinase Tracer 178); conditions: ALK2 R206H, LANTHASCREEN TR-FRET competitive binding; read-out: Binding Assay (IC50)
T2 construct: purchased Carna Bioscience or ThermoFisher 09-148 or PV6232
T2 sequence (Q04771 21-509 R206H): T1 sequence (Q04771 21-509 R206H)
Protocol: Binding assays were conducted using the LANTHASCREEN® technology (ThermoFisher Scientific). LANTHASCREEN® is a competitive binding, displacement assay where the assumed steady state occupancy of the binding site is measured using a time-resolved, fluorescence energy transfer (TR-FRET) readout between a fluorescent tracer and Europium (Eu)-tagged antibody specific for the kinase or expression tag (e.g. GST) of interest. Displacement of the tracer by a compound of the disclosure reduces, and is directly proportional to, the TR-FRET between the tracer and the antibody. Tracer was used at a concentration equal to or near to its Kd for the kinase.
In all cases, the kinase (2-5 nM) was mixed with Eu-tagged antibody (10 nM) mix and tracer (50 nM) were incubated with test compound titrations prepared in 100% DMSO (1% DMSO final) for 30 minutes at room temperature. All reagents and compounds were dissolved in Kinase Buffer A (ThermoFisher) to achieve the final concentration. […] This readout was normalized to 0% and 100% inhibited control wells, plotted against inhibitor concentration, and fitted to a 4-parameter log dose response curve.
as §1

| Structure (SMILES) | IC50 [1] | IC50 [2] |
| --- | --- | --- |
| CC[C@H](C)NC(=O)N1CCN(c2ccnn3cc(-c4ccc(C5CCN(C(C)C)CC5)cc4)cc23)CC1 [Compound 393] | 100 to 500 nM | < 10 nM |
| CC(C)NC(=O)N1CCN(c2ccnn3cc(-c4ccc([C@]5(C)CCCN5C(C)C)cc4)cc23)CC1 [Compound 581] | < 100 nM | < 10 nM |
| COCC(C)N1CCC(OC)(c2ccc(-c3cc4c(N5CCN(C(=O)C6CC6)CC5)ccnn4c3)nc2)CC1 (stereo not shown) [Compound 710] | < 100 nM | < 10 nM |
| CCNC(=O)N1CCN(c2ccnn3cc(-c4ccc([C@@H]5CNCCO5)cc4)cc23)CC1 [Compound 142] | 100 to 500 nM | < 10 nM |
| CCNC(=O)N1CCN(c2ccnn3cc(-c4ccc([C@]5(OC)CCCN(C(C)C)C5)c(F)c4)cc23)CC1 [Compound 699] | < 100 nM | < 10 nM |
| COC1(c2ccc(-c3cc4c(N5CCN(C(=O)OC6COC6)CC5)ccnn4c3)nc2)CCN([C@@H](C)COC(F)F)CC1 [Compound 899] | < 100 nM | < 10 nM |
| COC1(c2ccc(-c3cc4c(N5CCN(C(=O)C6CC6)CC5)ccnn4c3)nc2)CCN([C@@H](C)COC(F)F)CC1 [Compound 886] | < 100 nM | < 10 nM |
| CCOC(=O)N1CCN(c2ccnn3cc(-c4ccc(C5(C#N)CCNCC5)cc4)cc23)CC1 [Compound 483] | < 100 nM | < 10 nM |
| CCOC(=O)N1CCN(c2ccnn3cc(-c4ccc(C5CCN(C(C)C)CC5)cc4Cl)cc23)CC1 [Compound 651] | < 100 nM | < 10 nM |
| CC(C)N1CCC(CO)(c2ccc(-c3cc4c(N5CCN(C(=O)C6CC6)CC5)ccnn4c3)cc2)CC1 [Compound 811] | < 100 nM | < 10 nM |
| CCN1CC2CN(c3ccnn4cc(-c5ccc(N6CCNCC6)cc5)cc34)CCN2C1=O (stereo not shown) [Compound 171] | – | 10 to 50 nM |
| CCOC(=O)N1CCN(c2ccnn3cc(-c4cnc(C5CCN(C(C)C)CC5)nc4)cc23)CC1 [Compound 552] | – | < 10 nM |
| CCNC(=O)N1CCN(c2ccnn3cc(-c4ccc([C@@]5(OC)CCCN(C(C)C)C5)cc4)cc23)CC1 [Compound 640] | – | < 10 nM |
| CCN1CCC(n2cc(-c3cc4c(N5CCN(C(=O)C6CC6)CC5)ccnn4c3)cn2)C1 (stereo not shown) [Compound 139] | – | < 10 nM |
| CN1CCn2c(cnc2-c2cc3c(N4CCN(C(=O)C5CC5)CC4)ccnn3c2)C1 [Compound 106] | – | > 50 nM |
| CCNC(=O)N1CCN(c2ccnn3cc(-c4cnc(C5CCN(C(C)C)CC5)nc4)cc23)CC1 [Compound 547] | – | < 10 nM |
| CCN1CCC(c2ccc(-c3cc4c(N5CCN(C(=O)C6CC6c6ccc(Cl)cc6)CC5)ccnn4c3)cc2)C1 (stereo not shown) [Compound 444] | – | 10 to 50 nM |
| CCNC(=O)N1CCN(c2ccnn3cc(-c4ncc(N5CCN(C(C)C)CC5)cn4)cc23)CC1 [Compound 553] | – | 10 to 50 nM |
| CCOC1(c2ccc(-c3cc4c(N5CCN(C(=O)NC(C)C)CC5)ccnn4c3)nc2)CCN(C[C@@H](C)F)CC1 [Compound 862] | – | < 10 nM |
| CCNC(=O)N1CCN(c2ccnn3cc(-c4ccc([C@]5(OC)CCCN(C(C)C)C5)cc4)cc23)CC1 [Compound 639] | – | < 10 nM |
| CCN(C)C(=O)N1CCN(c2ccnn3cc(-c4ccc(C5CCN(C(C)C)CC5)cc4)cc23)CC1 [Compound 342] | – | 10 to 50 nM |
| NC(CO)c1ccc(-c2cc3c(N4CCN(C(=O)C5CC5)CC4)ccnn3c2)c(F)c1 (stereo not shown) [Compound 759] | – | < 10 nM |
| O=C(C1CC1)N1CCN(c2ccnn3cc(-c4ccc(C5(C(=O)O)CCNCC5)cc4)cc23)CC1 [Compound 781] | – | 10 to 50 nM |
| CCOC(=O)N1CCN(c2ccnn3cc(-c4ccc(C5CCN(C(C)C)CC5)cc4F)cc23)CC1 [Compound 612] | – | < 10 nM |

More lines, now with the values ahead:

| IC50 [1] | IC50 [2] | Structure (SMILES) |
| --- | --- | --- |
| < 100 nM | < 10 nM | CC(C)N1CCN(C)[C@@](C)(c2ccc(-c3cc4c(N5CCN(C(=O)C6CC6)CC5)ccnn4c3)cc2)C1 [Compound 620] |
| < 100 nM | < 10 nM | C[C@@]1(c2ccc(-c3cc4c(N5CCN(C(=O)C6CC6)CC5)ccnn4c3)cc2)CCCN1 [Compound 460] |
| < 100 nM | < 10 nM | CCOC(=O)N1CCN(c2ccnn3cc(-c4ccc([C@@]5(OCC)CCCNC5)cc4)cc23)CC1 [Compound 782] |
| < 100 nM | < 10 nM | CO[C@@]1(c2ccc(-c3cc4c(N5CCN(C(=O)C6CC6)CC5)ccnn4c3)cc2)CCN(C(C)C)C1 [Compound 573] |
| < 100 nM | < 10 nM | CC(C)N1CCC[C@@](O)(c2ccc(-c3cc4c(N5CCN(C(=O)C6CC6)CC5)ccnn4c3)cc2)C1 [Compound 325] |
| < 100 nM | < 10 nM | CO[C@]1(c2ccc(-c3cc4c(N5CCN(C(=O)C6CC6)CC5)ccnn4c3)cc2F)CCCN(C(C)C)C1 [Compound 683] |
| < 100 nM | < 10 nM | CC(C)N1CCN(c2ccc(-c3cc4c(N5CCN(C(=O)[C@H]6CC[C@H](C#N)CC6)CC5)ccnn4c3)cc2)CC1 [Compound 436] |
| < 100 nM | < 10 nM | CC(C)N1CCN[C@H](c2ccc(-c3cc4c(N5CCN(C(=O)C6CC6)CC5)ccnn4c3)cc2)C1 [Compound 517] |
| < 100 nM | < 10 nM | CC(N)(CO)c1ccc(-c2cc3c(N4CCN(C(=O)C5CC5)CC4)ccnn3c2)cc1 (stereo not shown) [Compound 455] |
| < 100 nM | < 10 nM | O=C(C1CC1)N1CCN(c2ccnn3cc(-c4ccc([C@H]5CCCN5)nc4)cc23)CC1 [Compound 451] |
| < 100 nM | < 10 nM | CC(C)N1CC(F)C(c2ccc(-c3cc4c(N5CCN(C(=O)C6CC6)CC5)ccnn4c3)cc2)C1 (stereo not shown) [Compound 282] |
| 100 to 500 nM | < 10 nM | O=C(C1CC1)N1CCN(c2ccnn3cc(-c4cnn(C5CCNC5)c4)cc23)CC1 (stereo not shown) [Compound 104] |
| – | 10 to 50 nM | CCN1CCN(c2ccc(-c3cc4c(N5CCN(C(=O)C6(c7cccs7)CC6)CC5)ccnn4c3)cc2)CC1 [Compound 438] |
| – | > 50 nM | O=C(C1CC1)N1CCN(c2ccnn3cc(-c4ccc(N5CCNCC5=O)cc4)cc23)CC1 [Compound 151] |
| – | < 10 nM | CC(C)N1CCC(c2ccc(-c3cc4c(N5CCN(C(=O)C6CC(C#N)C6)CC5)ccnn4c3)cc2)CC1 (stereo not shown) [Compound 405] |
| – | 10 to 50 nM | CCN1CCC(c2ccc(-c3cc4c(N5CCN(C(=O)C6(C(F)F)CC6)CC5)ccnn4c3)cc2)C1 (stereo not shown) [Compound 356] |
| – | 10 to 50 nM | CCN1CCN(c2ccc(-c3cc4c(N5CCN(C(=O)[C@@H]6C[C@@H]6F)CC5)ccnn4c3)cc2)CC1 [Compound 291] |
| – | < 10 nM | O=C(C1CC1)N1CCN(c2ccnn3cc(-c4ccc(CNCCO)cc4)cc23)CC1 [Compound 756] |
| – | < 10 nM | COCC(N)c1ccc(-c2cc3c(N4CCN(C(=O)C5CC5)CC4)ccnn3c2)cc1 (stereo not shown) [Compound 758] |
| – | > 50 nM | O=C(C1CC1)N1CCN(c2ccnn3cc(-c4ncc5n4CCNC5)cc23)CC1 [Compound 101] |
| – | 10 to 50 nM | O=C(C1CC1)N1CCN(c2ccnn3cc(-c4ccn(C5CCNC5)n4)cc23)CC1 (stereo not shown) [Compound 105] |
| – | 10 to 50 nM | CCN1CCC(c2ccc(-c3cc4c(N5CCN(C(=O)C(C)=O)CC5)ccnn4c3)cc2)CC1 [Compound 215] |
| – | < 10 nM | CC(C)N1CC(Oc2ccc(-c3cc4c(N5CCN(C(=O)C6CC6)CC5)ccnn4c3)cc2)C1 [Compound 220] |
| – | < 10 nM | NCC(O)c1ccc(-c2cc3c(N4CCN(C(=O)C5CC5)CC4)ccnn3c2)cc1 (stereo not shown) [Compound 751] |
| – | 10 to 50 nM | CC(C)N1C[C@H](c2ccc(-c3cc4c(N5CCN(C(=O)C6CC6)CC5)ccnn4c3)cc2)C[C@H]1C [Compound 506] |
| – | < 10 nM | O=C(C1CC1)N1CCN(c2ccnn3cc(-c4ccc(N5CCC6(CNC6)C5)cc4)cc23)CC1 [Compound 198] |
| – | < 10 nM | O=C(C1CC1)N1CCN(c2ccnn3cc(-c4ccc(N5CCC6(CCNC6)C5)cc4)cc23)CC1 (stereo not shown) [Compound 244] |
